According to US11414431B2, “Substituted pyrazolo[1,5-a]pyrimidines as TYK2 inhibitors” (Nimbus Lakshmi, Inc., priority 2018, dated 2022):

system: IL-12 induced STAT4 phosphorlyation mediated by TYK2/JAK2; assay: IL-12 Induced pSTAT4 in Human PBMC; type: cell-based; conditions: 1.7 ng/mL IL-12 for 30 minutes
Procedure, shortened: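 Thawed human PBMC pre-incubated with compound 1 hr at 37° C (0.1% DMSO final), then stimulated 30 minutes with IL-12 at 1.7 ng/mL final. pSTAT4 and total STAT4 measured in cell lysates with MSD reagents.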

Row | SMILES | IC50 [µM]
1 | CNc1cc(-c2cnc3n([C@@H]4COC[C@H]4OC)cccc2-3)nc2c(C(=O)N[C@@H]3CC[C@@H]3O)cnn12 [Compound I-867] | 0.1 to 0.5
2 | CNc1cc(-c2cn(CC(=O)N3CCC3)c3ncccc23)nc2c(C(=O)N[C@H]3CC[C@@H]3OC)cnn12 [Compound I-929] | 0.1 to 0.5
3 | CNc1cc(-c2cn([C@@H]3CC(=O)N(C4CCOCC4)C3)c3ncccc23)nc2c(C(=O)N[C@H]3CC[C@@H]3OC)cnn12 [Compound I-1028] | 0.1 to 0.5
4 | CNc1cc(Nc2cccn([C@H]3CCCOC3)c2=O)nc2c(C(=O)N[C@@H]3CCC3(F)F)cnn12 [Compound I-314] | < 0.1
5 | CNc1cc(-c2cnc3n([C@H]4CCOC4)cccc2-3)nc2c(C(=O)N[C@H]3CC[C@@H]3OC)cnn12 [Compound I-1002] | < 0.1
6 | CNc1cc(Nc2cccn([C@H]3C[C@@H](OC)C3)c2=O)nc2c(C(=O)N[C@H]3CC[C@@H]3F)cnn12 [Compound I-174] | < 0.1
7 | CNc1cc(-c2cn([C@@H]3CCOC[C@@H]3F)c3ncccc23)nc2c(C(=O)NC3CC[C@H]3O)cnn12 (stereo partly shown) [Compound I-588] | 0.1 to 0.5
8 | CNc1cc(-c2cn([C@H]3COC[C@@H]3OC)c3ccccc23)nc2c(C(=O)N[C@H]3CC[C@@H]3OC)cnn12 [Compound I-742] | < 0.1
9 | CNc1cc(-c2cn([C@H]3CC3(F)F)c3ncccc23)nc2c(C(=O)N[C@H]3CC[C@H]3O)cnn12 [Compound I-552] | < 0.1
10 | CNc1cc(-c2cn([C@H]3CCN(C)C3)c3ncccc23)nc2c(C(=O)N[C@H]3CC[C@@H]3OC)cnn12 [Compound I-619] | < 0.1
11 | CNc1cc(Nc2cccn([C@H]3CCC[C@@H](C#N)C3)c2=O)nc2c(C(=O)N[C@H]3CCC3(F)F)cnn12 [Compound I-331] | < 0.1
12 | CNc1cc(-c2cnc3n([C@H]4COC[C@@H]4O)cccc2-3)nc2c(C(=O)NC3CC[C@@H]3OC)cnn12 (stereo partly shown) [Compound I-877] | 0.1 to 0.5
13 | CNc1cc(Nc2cccn([C@@H]3CCC[C@H](C#N)C3)c2=O)nc2c(C(=O)N[C@H]3CCC3(F)F)cnn12 [Compound I-328] | < 0.1
14 | CNc1cc(-c2cn([C@H]3COC[C@@H]3OC)c3ccccc23)nc2c(C(=O)NC3CC[C@@H]3OC)cnn12 (stereo partly shown) [Compound I-741] | < 0.1
15 | CNc1cc(-c2cn([C@@H]3CCOC[C@H]3O)c3ncccc23)nc2c(C(=O)N[C@H]3CC[C@@H]3F)cnn12 [Compound I-538] | < 0.1
16 | CNc1cc(Nc2cccn([C@H]3C[C@H](F)C3)c2=O)nc2c(C(=O)N[C@H]3CC[C@H](O)C3)cnn12 [Compound I-436] | < 0.1
17 | CNc1cc(Nc2cccn([C@H]3C[C@@H](OC)C3)c2=O)nc2c(C(=O)N[C@H]3CC[C@@H]3OC)cnn12 [Compound I-253] | < 0.1
18 | CNc1cc(-c2cn([C@H]3CCOC[C@@H]3F)c3ncccc23)nc2c(C(=O)N[C@H]3CC[C@@H]3OC)cnn12 [Compound I-802] | < 0.1
19 | CNc1cc(Nc2cccn([C@H]3CC[C@@H]3O)c2=O)nc2c(C(=O)N[C@@H]3CC[C@@]3(C)OC)cnn12 [Compound I-377] | < 0.1
20 | CNc1cc(Nc2cccn(C3CCOCC3)c2=O)nc2c(C(=O)NC3CC[C@H]3F)cnn12 (stereo partly shown) [Compound I-191] | < 0.1
21 | CNc1cc(-c2cnc3n([C@@H]4CCOC[C@H]4O)cccc2-3)nc2c(C(=O)N[C@H]3CC[C@@H]3F)cnn12 [Compound I-848] | < 0.1
22 | CNc1cc(-c2cn([C@H]3CC3(F)F)c3ncccc23)nc2c(C(=O)N[C@@H]3COC[C@@H]3O)cnn12 [Compound I-711] | < 0.1
23 | CNc1ccc(-c2cc(NC)n3ncc(C(=O)N[C@H]4CC[C@H]4O)c3n2)n2ccnc12 [Compound I-485] | < 0.1
24 | CNc1cc(-c2cn([C@H]3CN(C)C[C@@H]3OC)c3ncccc23)nc2c(C(=O)N[C@H]3CC[C@@H]3OC)cnn12 [Compound I-649] | < 0.1
25 | CNc1cc(Nc2cccn([C@@H]3CCC[C@@H](OC)C3)c2=O)nc2c(C(=O)NC3CC[C@@H]3F)cnn12 (stereo partly shown) [Compound I-227] | < 0.1
26 | CNc1cc(-c2cn([C@H]3CC(=O)N(C)C3)c3ncccc23)nc2c(C(=O)N[C@H]3CC[C@@H]3OC)cnn12 [Compound I-1024] | < 0.1

Results, then the compound that gave them:

Row | IC50 [µM] | SMILES
27 | < 0.1 | CNc1cc(-c2cnc3n([C@@H]4COC[C@H]4O)cccc2-3)nc2c(C(=O)N[C@@H]3CC[C@H]3OC)cnn12 [Compound I-876]
28 | < 0.1 | CNc1cc(-c2cn([C@@H]3COC[C@@H]3F)c3ncccc23)nc2c(C(=O)NC3CC[C@@H]3OC)cnn12 (stereo partly shown) [Compound I-621]
29 | < 0.1 | CNc1ccc(-c2cc(NC)n3ncc(C(=O)NC4CC[C@H]4O)c3n2)n2ccnc12 (stereo partly shown) [Compound I-484]
30 | < 0.1 | CNc1cc(Nc2cccn([C@@H]3C[C@H]3OC)c2=O)nc2c(C(=O)N[C@H]3CC[C@@H]3F)cnn12 [Compound I-155]
31 | < 0.1 | CNc1cc(-c2cn([C@@H]3CCN(C)C3)c3ncccc23)nc2c(C(=O)NC3CC[C@@H]3OC)cnn12 (stereo partly shown) [Compound I-615]
32 | < 0.1 | CNc1cc(Nc2cccn([C@@H]3CCOC[C@@H]3OC)c2=O)nc2c(C(=O)NC3CCC3(F)F)cnn12 (stereo partly shown) [Compound I-336]
33 | < 0.1 | CNc1cc(Nc2cccn(C3CCOCC3)c2=O)nc2c(C(=O)N[C@@H]3CC[C@H]3F)cnn12 [Compound I-190]
34 | < 0.1 | CNc1cc(-c2cn([C@@H]3CCOC[C@H]3F)c3ncccc23)nc2c(C(=O)N[C@H]3CC[C@H]3O)cnn12 [Compound I-918]
35 | < 0.1 | CNc1cc(Nc2cccn([C@@H]3CCC[C@@H](OC)C3)c2=O)nc2c(C(=O)N[C@H]3CC[C@@H]3F)cnn12 [Compound I-228]
36 | < 0.1 | CNc1cc(-c2cn([C@H]3CCOC[C@H]3OC)c3ncccc23)nc2c(C(=O)N[C@@H]3CCC3(F)F)cnn12 [Compound I-811]
37 | < 0.1 | CNc1cc(Nc2cccn([C@H]3[C@@H]4COC[C@@H]43)c2=O)nc2c(C(=O)N[C@@H]3CC[C@H]3F)cnn12 [Compound I-208]
38 | < 0.1 | CNc1cc(-c2cn(CCOC)c3ncccc23)nc2c(C(=O)N[C@H]3CC[C@@H]3OC)cnn12 [Compound I-923]
39 | < 0.1 | CNc1cc(Nc2cccn([C@@H]3CCC[C@](C)(OC)C3)c2=O)nc2c(C(=O)NC3CC3)cnn12 [Compound I-124]
40 | < 0.1 | CNc1cc(Nc2cccn([C@@H]3CCC[C@](C)(OC)C3)c2=O)nc2c(C(=O)N[C@@H]3C[C@@H]3F)cnn12 [Compound I-131]
41 | < 0.1 | CNc1cc(Nc2cccn([C@@H]3C[C@H]3F)c2=O)nc2c(C(=O)N[C@@H]3CCC3(F)F)cnn12 [Compound I-276]
42 | < 0.1 | CNc1cc(-c2cn([C@H]3COC[C@@H]3O)c3ncccc23)nc2c(C(=O)NC3CCC3(F)F)cnn12 (stereo partly shown) [Compound I-695]
43 | < 0.1 | CNc1cc(-c2cn(CC(=O)N(C)C)c3ncccc23)nc2c(C(=O)N[C@H]3CC[C@@H]3OC)cnn12 [Compound I-921]
44 | < 0.1 | CNc1cc(Nc2cccn([C@@H]3CCC[C@@H]3O)c2=O)nc2c(C(=O)N[C@@H]3CC[C@H]3F)cnn12 [Compound I-181]
45 | < 0.1 | CNc1cc(-c2cn([C@@H]3COC[C@@H]3F)c3ncccc23)nc2c(C(=O)N[C@H]3CC[C@H]3O)cnn12 [Compound I-571]
46 | < 0.1 | CNc1cc(Nc2cccn([C@@H]3CCCOC3)c2=O)nc2c(C(=O)NC3CCC3(F)F)cnn12 (stereo partly shown) [Compound I-315]
47 | < 0.1 | CNc1cc(Nc2cccn(C3CCC[C@@](C)(OC)C3)c2=O)nc2c(C(=O)N[C@@H]3C[C@@H]3F)cnn12 (stereo partly shown) [Compound I-130]
48 | < 0.1 | CNc1cc(Nc2cccn(C3COC3)c2=O)nc2c(C(=O)NC3CCC3(F)F)cnn12 (stereo not shown) [Compound I-280]
49 | < 0.1 | CNc1cc(-c2cn(CCOC)c3ncccc23)nc2c(C(=O)NC3CC[C@@H]3OC)cnn12 (stereo partly shown) [Compound I-795]

same assay, conditions: 0.5 h, 1.7 ng/mL IL-12 for 30 minutes

Row | IC50 [µM] | SMILES
50 | 0.1 to 0.5 | CNc1cc(Nc2cccn([C@H]3C[C@H](F)C3)c2=O)nc2c(C(=O)NC3CC[C@H]3O)cnn12 (stereo partly drawn) [Compound I-11, 5-((1-((1r,3S)-3-Fluorocyclobutyl)-2-oxo-1,2-dihydropyridin-3-yl)amino)-N-(2-hydroxycyclobutyl)-7-(methylamino)pyrazolo[1,5-a]pyrimidine-3-carboxamide]
51 | 0.1 to 0.5 | CNc1cc(-c2cn(CC(=O)N(C)C)c3ncccc23)nc2c(C(=O)NC3CC[C@@H]3OC)cnn12 (stereo in doubt) [Compound I-920, 5-(1-(2-(dimethylamino)-2-oxoethyl)-1H-pyrrolo[2,3-b]pyridin-3-yl)-N-(2-methoxycyclobutyl)-7-(methylamino)pyrazolo[1,5-a]pyrimidine-3-carboxamide]
52 | 0.1 to 0.5 | CNc1cc(-c2cn([C@@H]3CC(=O)N(C)C3)c3ncccc23)nc2c(C(=O)NC3CC[C@@H]3OC)cnn12 (stereo partly drawn) [Compound I-1016, N-(2-methoxycyclobutyl)-5-(1-((R)-1-methyl-5-oxopyrrolidin-3-yl)-1H-pyrrolo[2,3-b]pyridin-3-yl)-7-(methylamino)pyrazolo[1,5-a]pyrimidine-3-carboxamide]
53 | < 0.1 | CNc1cc(-c2cn([C@H]3C[C@@H](OC)C3)c3ncccc23)nc2c(C(=O)NC3CC[C@@H]3OC)cnn12 (stereo partly drawn) [Compound I-925, N-(2-methoxycyclobutyl)-5-(1-((1s,3S)-3-methoxycyclobutyl)-1H-pyrrolo[2,3-b]pyridin-3-yl)-7-(methylamino)pyrazolo[1,5-a]pyrimidine-3-carboxamide]
54 | 0.1 to 0.5 | CNc1cc(-c2cnc3n(CC(C)(C)O)cccc2-3)nc2c(C(=O)NC3CC[C@@H]3OC)cnn12 (stereo in doubt) [Compound I-979, 5-(7-(2-hydroxy-2-methylpropyl)-7H-pyrrolo[2,3-b]pyridin-3-yl)-N-(2-methoxycyclobutyl)-7-(methylamino)pyrazolo[1,5-a]pyrimidine-3-carboxamide]
55 | 0.1 to 0.5 | CNc1cc(-c2cn([C@@H]3CC(=O)N(C4CCOCC4)C3)c3ncccc23)nc2c(C(=O)NC3CC[C@@H]3OC)cnn12 (stereo partly drawn) [Compound I-1026, N-(2-methoxycyclobutyl)-7-(methylamino)-5-(1-((R)-5-oxo-1-(tetrahydro-2H-pyran-4-yl)pyrrolidin-3-yl)-1H-pyrrolo[2,3-b]pyridin-3-yl)pyrazolo[1,5-a]pyrimidine-3-carboxamide]
